These results are taken from patent publication US7566791B2, “Substituted 3-carbonyl-1h-indol-1yl acetic acid derivatives as inhibitors of plasminogen activator inhibitor-1 (PAI-1)” (Wyeth, priority 2002, dated 2009).

By inhibition is commonly meant the relative decrease from the control value, in per cent. In general, melting point refers to the temperature, or range, at which the solid turns liquid.

The target of series [1] is T1, recombinant human plasminogen activator inhibitor-1 (Homo sapiens, UniProt P05121).
T1 construct: purchased Molecular Innovations, Royal Oak, Mich
The experiment in a line: Primary screen for the PAI-1 inhibition (residual tPA activity, chromogenic Spectrozyme-tPA). The series is classed as biochemical. The following applies: 25 uM test compound; pH 6.6 buffer, 140 nM PAI-1, 70 nM tPA. The protocol:
Primary Screen for the PAI-1 Inhibition
Test compounds were dissolved in DMSO at a final concentration of 10 mM, then diluted 100× in physiologic buffer. The inhibitory assay was initiated by the addition of the test compound (1-100 μM final concentration, maximum DMSO concentration of 0.2%) in a pH 6.6 buffer containing 140 nM recombinant human plasminogen activator inhibitor-1 (Molecular Innovations, Royal Oak, Mich.). Following a 1 hour incubation at room temperature, 70 nM of recombinant human tissue plasminogen activator (tPA) was added, and the combination of the test compound, PAI-1 and tPA was incubated for an additional 30 minutes. Following the second incubation, Spectrozyme-tPA (American Diagnostica, Greenwich, Conn.), a chromogenic substrate for tPA, was added and absorbance was read at 405 nm at 0 and 60 minutes. Relative PAI-1 inhibition was equal to the residual tPA activity in the presence of the test compound and PAI-1. Control treatments included the complete inhibition of tPA by PAI-1 at the molar ratio employed (2:1), and the absence of any effect of the test compound on tPA alone.

T1 sequence (P05121 24-402): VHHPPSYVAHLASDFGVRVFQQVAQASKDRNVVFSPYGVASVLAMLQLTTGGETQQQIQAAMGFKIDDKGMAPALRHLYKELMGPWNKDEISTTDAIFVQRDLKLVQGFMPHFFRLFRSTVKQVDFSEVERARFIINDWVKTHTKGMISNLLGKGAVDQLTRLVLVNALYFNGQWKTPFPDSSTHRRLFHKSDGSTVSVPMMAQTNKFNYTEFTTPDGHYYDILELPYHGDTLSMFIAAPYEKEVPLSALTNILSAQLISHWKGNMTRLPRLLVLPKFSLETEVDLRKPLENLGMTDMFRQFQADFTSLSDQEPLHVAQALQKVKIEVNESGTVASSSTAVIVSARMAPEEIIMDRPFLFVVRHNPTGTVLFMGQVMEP

Regarding `Cc1ccc(-c2ccc3c(c2)c(C(=O)c2cc4ccccc4s2)cn3CC(=O)O)cc1` [Example 2, [3-(Benzo[b]thiophene-2-carbonyl)-5-(4-methylphenyl)-1H-indol-1-yl]-acetic acid], the inhibition at 25 µM in series [1] was 45%.

Compound `O=C(O)Cn1cc(C(=O)c2ccc(Cl)cc2)c2cc(-c3ccc(Cl)cc3)ccc21` [Example 1, [3-(4-chlorobenzoyl)-5-(4-chlorophenyl)-1H-indol-1-yl]acetic acid] came in with a melting point of 255 to 257 °C. The inhibition at 25 µM in series [1] amounted to 47%.

Turning to `Cc1ccc(-c2ccc3c(c2)c(C(=O)c2ccc(Cl)cc2)cn3CC(=O)O)cc1` [Example 3, [3-(4-chlorobenzoyl)-5-(4-methylphenyl)-1H-indol-1-yl]-acetic acid], the inhibition at 25 µM in series [1] amounted to 46%.
